Positions of bridges follow the written chain, without caps; N, C: chain ends.
Experiments:
[1] = system: Normal human breast A1N4 cells; test: Disruption of cell adhesion: microinjection of peptide/DAPI mixture into cells, morphology noted at hourly intervals; assay type: cell-based; conditions: 0.2 pL peptide/DAPI mixture injected, final intracellular concentration of peptide 0.5 mg/ml, after 4 hours
Method: Three peptides (N-Ac-CKHAVVNC-NH2, N-Ac-CKHGWNC-NH2, and H-KHAVVN-OH; SEQ ID NOS: 5, 51 and 8 respectively) were tested for their ability to disrupt cell adhesion. Normal human breast A1N4 cells were grown on gridded glass coverslips to approximately 30% confluence. Peptides were dissolved in distilled water at a concentration of […]. Each of the three peptide solutions was mixed 1:1 with a solution containing the fluorescent marker DAPI (Molecular Probes Inc., Eugene, Oreg.) dissolved in water at a concentration of 40 μg/ml. All of the mixtures were centrifuged at 10,000×g for 5 minutes immediately before use in the experiments. An aliquot ([…]) of each peptide/DAPI mixture was taken up in an Eppendorff microinjection pipette. Microinjection was performed using an Eppendorf microinjector and micromanipulator coupled to an IM35 inverted Zeiss microscope with phase contrast and Hoffman optics. Cells to be injected were located and their position on the grid noted. For microinjection, the pipette was brought close to the cell layer and the micromanipulator programmed to return to the same plane. Cells were injected with 0.2 pL of peptide/DAPI mixture. This corresponds to approximately 1/100 of the cell volume and results in a final intracellular concentration of peptide of 0.5 mg/ml. […] After 4 hours, a difference in the morphology of the cells injected with the various peptides was observed.

[2] = system: α-catenin/β-catenin interactions; test: Immunoprecipitation from adult mouse brain extracts, Western blot probed with anti-α-catenin / anti-β-catenin antibodies; assay type: binding; conditions: adult mouse brain homogenate incubated 3 hours at 4° C. with peptide at 1 mg/ml
Method: As noted above, modulating agents are capable of disrupting an interaction between α-catenin and β-catenin. This ability may generally be evaluated using any suitable assay known to those of ordinary skill in the art. For example, an immunoprecipitation as described herein may be employed. Within such an assay, disruption of the interaction is measured by assessing the ability of an antibody directed against β-catenin to immunoprecipitate α-catenin in the presence and absence of the modulating agent. For example, tissue such as brain may be homogenized in the presence and absence of modulating agent. The ability of an antibody directed against β-catenin to immunoprecipitate α-catenin from the homogenate is then assessed by probing a Western blot of proteins immunoprecipitated from the tissue homogenate by anti-β-catenin antibody with an anti-α-catenin antibody. […]
These peptides, as well as two control peptides (H-CKHGWNC-OH, SEQ ID NO:6, and H-CKHGWNC-OH, SEQ ID NO:51) were analyzed for their ability to disrupt α-catenin/β-catenin interactions, as judged by standard immunoprecipitation methods. […] Finally, the membrane was washed 3 times with TTBS, and the immunoreactive proteins were detected using an enhanced chemiluminescence kit (ECL; Amersham Life Sciences Inc., Oakville, Ontario) and autoradiographic film (Fuji, Minami-Ashigara, Japan). […]

Question: How did the “morphology of the injected cells” value [1] turn out when “Ac-CKHGWNC-NH2 (cysteine pairing not given here) [N-Ac-CKHGWNC-NH2 (SEQ ID NO:51), reference compound]” was run?
Answer: The value was “indistinguishable from surrounding uninjected cells”.

Question: Which “ability to disrupt α-catenin/β-catenin interactions, as judged by immunoprecipitation” value [2] does the source give for “H-CKHAVVNC-OH (cysteine pairing not given here) [H-CKHAVVNC-OH (SEQ ID NO:4)]” here?
Answer: The value was “capable of disrupting the interaction between α-catenin and β-catenin”.

Question: Which “ability to disrupt α-catenin/β-catenin interactions, as judged by immunoprecipitation” value [2] does the source give for “H-Cys-Lys-His-Ala-Val-Val-Asn-Cys-OH (H-CKHAVVNC-OH; cysteine pairing not given here) [H-CKHAVVNC-OH (SEQ ID NO:5)]” here?
Answer: Its value is “capable of disrupting the interaction between α-catenin and β-catenin”.

Question: For H-KHAVVN-OH [H-KHAVVN-OH (SEQ ID NO:8)], which “morphology of the injected cells” value [1] is on record?
Answer: The value was “had become rounded, and they were detached from their neighbors”.

Question: For “N-Ac-CKHAVVNC-NH2 (disulfide 1-8 (inferred)) [N-Ac-CKHAVVNC-NH2 (SEQ ID NO:5)]”, which “morphology of the injected cells” value [1] is on record?
Answer: Its value is “indistinguishable from surrounding uninjected cells”.
